Assay results reported in the NIST ThermoML archive (doi:10.1021/acs.jced.6b00688).
Numbers after ± are expanded uncertainties.

Settings: for viscosity / mass density: 101.33 kPa, Liquid; for viscosity: Falling or rolling sphere viscometry; for mass density: Vibrating tube method; for Normal melting temperature: Crystal, DTA

Q: Which results are given for `OCC1CCCCC1` [cyclohexylmethanol]?
A: viscosity (293.15 K): 36.96 ± 0.79 mPa·s; mass density (293.15 K): 929.96 ± 1.9 kg/m3; viscosity (298.15 K): 28.35 ± 0.61 mPa·s; mass density (298.15 K): 926.43 ± 1.9 kg/m3; viscosity (303.15 K): 22.04 ± 0.47 mPa·s; mass density (303.15 K): 922.87 ± 1.9 kg/m3; viscosity (308.15 K): 17.32 ± 0.37 mPa·s; mass density (308.15 K): 919.28 ± 1.8 kg/m3; viscosity (313.15 K): 13.83 ± 0.3 mPa·s; mass density (313.15 K): 915.66 ± 1.8 kg/m3; viscosity (318.15 K): 11.14 ± 0.24 mPa·s; mass density (318.15 K): 912 ± 1.8 kg/m3; viscosity (323.15 K): 9.099 ± 0.2 mPa·s; mass density (323.15 K): 908.31 ± 1.8 kg/m3; viscosity (328.15 K): 7.521 ± 0.16 mPa·s; mass density (328.15 K): 904.57 ± 1.8 kg/m3; viscosity (333.15 K): 6.283 ± 0.14 mPa·s; mass density (333.15 K): 900.78 ± 1.8 kg/m3

Q: Which viscosity (293.15 K) does the source give for `CCCCCCCCCCCC` [dodecane] here?
A: Its viscosity is 1.485 ± 0.032 mPa·s.

Q: And the mass density (293.15 K)?
A: The mass density was 748.82 ± 1.5 kg/m3.

Q: What about the viscosity (298.15 K) of the same compound?
A: The viscosity was 1.359 ± 0.029 mPa·s.

Q: And the mass density (298.15 K)?
A: Its mass density is 745.2 ± 1.5 kg/m3.

Q: And the viscosity (303.15 K)?
A: Its viscosity is 1.25 ± 0.027 mPa·s.

Q: And the mass density (303.15 K)?
A: The mass density was 741.57 ± 1.5 kg/m3.

Q: What about the viscosity (308.15 K) of the same compound?
A: The viscosity was 1.155 ± 0.025 mPa·s.

Q: And the mass density (308.15 K)?
A: The mass density was 737.94 ± 1.5 kg/m3.

Q: What about the viscosity (313.15 K) of the same compound?
A: Its viscosity is 1.073 ± 0.023 mPa·s.

Q: What about the mass density (313.15 K) of the same compound?
A: Its mass density is 734.3 ± 1.5 kg/m3.

Q: And the viscosity (318.15 K)?
A: Its viscosity is 0.998 ± 0.022 mPa·s.

Q: And the mass density (318.15 K)?
A: Its mass density is 730.64 ± 1.5 kg/m3.

Q: What about the viscosity (323.15 K) of the same compound?
A: The viscosity was 0.932 ± 0.02 mPa·s.

Q: And the mass density (323.15 K)?
A: Its mass density is 726.98 ± 1.5 kg/m3.

Q: And the viscosity (328.15 K)?
A: The viscosity was 0.873 ± 0.019 mPa·s.

Q: And the mass density (328.15 K)?
A: The mass density was 723.31 ± 1.5 kg/m3.

Q: And the viscosity (333.15 K)?
A: Its viscosity is 0.819 ± 0.018 mPa·s.

Q: What about the mass density (333.15 K) of the same compound?
A: Its mass density is 719.64 ± 1.4 kg/m3.

Q: What about the Normal melting temperature of the same compound?
A: Its Normal melting temperature is -8.20 ± 6 °C.

Q: With `CCCCCCCO` [heptan-1-ol] as the compound, how does the viscosity (293.15 K) read?
A: Its viscosity is 6.89 ± 0.15 mPa·s.

Q: What about the mass density (293.15 K) of the same compound?
A: The mass density was 822.24 ± 1.6 kg/m3.

Q: What about the viscosity (298.15 K) of the same compound?
A: Its viscosity is 5.805 ± 0.12 mPa·s.

Q: And the mass density (298.15 K)?
A: Its mass density is 818.74 ± 1.6 kg/m3.

Q: And the viscosity (303.15 K)?
A: Its viscosity is 4.941 ± 0.11 mPa·s.

Q: And the mass density (303.15 K)?
A: Its mass density is 815.22 ± 1.6 kg/m3.

Q: What about the viscosity (308.15 K) of the same compound?
A: Its viscosity is 4.233 ± 0.09 mPa·s.

Q: And the mass density (308.15 K)?
A: The mass density was 811.68 ± 1.6 kg/m3.

Q: What about the viscosity (313.15 K) of the same compound?
A: The viscosity was 3.648 ± 0.077 mPa·s.

Q: What about the mass density (313.15 K) of the same compound?
A: The mass density was 808.11 ± 1.6 kg/m3.

Q: And the viscosity (318.15 K)?
A: The viscosity was 3.165 ± 0.067 mPa·s.

Q: And the mass density (318.15 K)?
A: Its mass density is 804.52 ± 1.6 kg/m3.

Q: And the viscosity (323.15 K)?
A: Its viscosity is 2.762 ± 0.059 mPa·s.

Q: What about the mass density (323.15 K) of the same compound?
A: The mass density was 800.88 ± 1.6 kg/m3.

Q: And the viscosity (328.15 K)?
A: Its viscosity is 2.423 ± 0.051 mPa·s.

Q: What about the mass density (328.15 K) of the same compound?
A: The mass density was 797.2 ± 1.6 kg/m3.

Q: And the viscosity (333.15 K)?
A: Its viscosity is 2.137 ± 0.045 mPa·s.

Q: What about the mass density (333.15 K) of the same compound?
A: The mass density was 793.49 ± 1.6 kg/m3.

Q: And the Normal melting temperature?
A: Its Normal melting temperature is -34.10 ± 6 °C.

Q: What does the source list for `CC1CCCCC1` [methylcyclohexane]?
A: viscosity (293.15 K): 0.727 ± 0.016 mPa·s; mass density (293.15 K): 769.33 ± 1.5 kg/m3; viscosity (298.15 K): 0.681 ± 0.015 mPa·s; mass density (298.15 K): 765 ± 1.5 kg/m3; viscosity (303.15 K): 0.64 ± 0.014 mPa·s; mass density (303.15 K): 760.67 ± 1.5 kg/m3; viscosity (308.15 K): 0.604 ± 0.013 mPa·s; mass density (308.15 K): 756.32 ± 1.5 kg/m3; viscosity (313.15 K): 0.571 ± 0.012 mPa·s; mass density (313.15 K): 751.95 ± 1.5 kg/m3; viscosity (318.15 K): 0.542 ± 0.012 mPa·s; mass density (318.15 K): 747.56 ± 1.5 kg/m3; viscosity (323.15 K): 0.515 ± 0.011 mPa·s; mass density (323.15 K): 743.15 ± 1.5 kg/m3; viscosity (328.15 K): 0.491 ± 0.011 mPa·s; mass density (328.15 K): 738.73 ± 1.5 kg/m3; viscosity (333.15 K): 0.469 ± 0.01 mPa·s; mass density (333.15 K): 734.28 ± 1.5 kg/m3; Normal melting temperature: -125.30 ± 6 °C
